Laboratory results reported in US7713994B2 (Wyeth LLC, priority 2005, dated 2010).
Like-named read-outs stand apart in the source and are kept apart here.

Tests used:
[1] = biological target: T1, cyclin D1/cdk 4 enzyme (Homo sapiens, UniProt P11802); assay: CDK4 ELISA kinase assay (phospho-Rb ser 795 detection); format: biochemical
T1 construct: made in house; host or cells: Sf9 insect cells, recombinant baculovirus
Outline: (§1)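 GST-Rb C-terminal fragment coated on plates; partially purified Sf9-expressed cyclin D1/CDK4, cyclin E/CDK2 or cyclin B/CDK1 with 200 μM ATP, pH 7.5 HEPES/MgCl2 buffer, 1 h at 30 °C; screen compound final 10 μg/ml. Phospho-Rb Ser795 detected by antibody ELISA (TMB, A450); % of control, IC50 from background-subtracted inhibition curves.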

[2] = biological target: T2, cyclin B/CDK1 enzyme (Homo sapiens, UniProt P06493); assay: CDK1 ELISA kinase assay (phospho-Rb ser 795 detection); format: biochemical
T2 construct: purchased New England BioLabs; host or cells: Sf9 insect cells, recombinant baculovirus
T2 sequence (P06493 whole entry): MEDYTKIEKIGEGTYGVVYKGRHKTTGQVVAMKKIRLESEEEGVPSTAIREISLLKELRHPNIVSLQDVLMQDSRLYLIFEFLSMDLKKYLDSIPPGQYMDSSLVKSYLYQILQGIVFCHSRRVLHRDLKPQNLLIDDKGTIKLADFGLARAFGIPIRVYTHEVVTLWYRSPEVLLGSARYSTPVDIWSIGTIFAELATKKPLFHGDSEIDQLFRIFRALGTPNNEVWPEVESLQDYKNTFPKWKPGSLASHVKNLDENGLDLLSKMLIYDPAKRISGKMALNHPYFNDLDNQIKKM
T2 sequence (P14635 whole entry partner): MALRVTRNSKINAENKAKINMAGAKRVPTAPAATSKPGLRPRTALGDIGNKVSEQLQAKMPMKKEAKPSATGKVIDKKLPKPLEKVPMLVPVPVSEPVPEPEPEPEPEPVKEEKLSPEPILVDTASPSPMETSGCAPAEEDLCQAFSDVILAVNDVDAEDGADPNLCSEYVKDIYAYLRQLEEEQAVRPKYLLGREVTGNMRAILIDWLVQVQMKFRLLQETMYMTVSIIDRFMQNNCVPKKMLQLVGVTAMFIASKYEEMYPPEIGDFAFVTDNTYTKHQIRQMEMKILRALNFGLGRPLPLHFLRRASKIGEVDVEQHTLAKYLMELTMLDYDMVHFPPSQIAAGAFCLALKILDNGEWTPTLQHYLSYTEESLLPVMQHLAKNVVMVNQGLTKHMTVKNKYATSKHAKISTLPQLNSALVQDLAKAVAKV
Outline: as §1

[3] = tested on: BT474; assay: Cytotoxicity assay (SRB), BT474; format: cell-based; details: Homo sapiens, BT-474, 144 h, read-out: In Vitro Cellular Activity IC50 BT474
Outline: (§2)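 Cells grown in RPMI 1640 with 5% FBS were treated with compound for three days (HCT-116, LoVo, MCF-7) or six days (BT474). Viable cell mass was quantified by sulforhodamine B staining of TCA-fixed protein and read at 540 nm.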

[4] = tested on: LoVo; assay: Cytotoxicity assay (SRB), LoVo; format: cell-based; details: Homo sapiens, LoVo, 72 h, read-out: In Vitro Cellular Activity IC50 LOVO
Outline: as §2

[5] = tested on: MCF-7; assay: Cytotoxicity assay (SRB), MCF-7; format: cell-based; details: Homo sapiens, MCF7, 72 h, read-out: In Vitro Cellular Activity IC50 MCF-7
Outline: as §2

[6] = tested on: HCT-116; assay: Cytotoxicity assay (SRB), HCT-116; format: cell-based; details: Homo sapiens, HCT-116, 72 h, read-out: In Vitro Cellular Activity IC50 HCT116
Outline: as §2

[7] = biological target: T3, cyclin E/CDK2 enzyme (Homo sapiens, UniProt P24941); assay: CDK2 ELISA kinase assay (phospho-Rb ser 795 detection); format: biochemical
T3 construct: made in house; host or cells: Sf9 insect cells, recombinant baculovirus
Outline: as §1

[8] = In Vitro Enzyme Assay, cyclin D1/cdk 4, read-out: CDK4 IC50
[9] = In Vitro Enzyme Assay, cyclin B/CDK1, read-out: CDK1 IC50
[10] = In Vitro Enzyme Assay, cyclin E/CDK2, read-out: CDK2 IC50
[11] = In Vitro Enzyme Assays, 200 μM ATP, read-out: CDK4 IC50
[12] = In Vitro Enzyme Assays, read-out: CDK1 IC50
[13] = In Vitro Enzyme Assays, read-out: CDK2 IC50

T1 sequence (P11802 whole entry, species assumed): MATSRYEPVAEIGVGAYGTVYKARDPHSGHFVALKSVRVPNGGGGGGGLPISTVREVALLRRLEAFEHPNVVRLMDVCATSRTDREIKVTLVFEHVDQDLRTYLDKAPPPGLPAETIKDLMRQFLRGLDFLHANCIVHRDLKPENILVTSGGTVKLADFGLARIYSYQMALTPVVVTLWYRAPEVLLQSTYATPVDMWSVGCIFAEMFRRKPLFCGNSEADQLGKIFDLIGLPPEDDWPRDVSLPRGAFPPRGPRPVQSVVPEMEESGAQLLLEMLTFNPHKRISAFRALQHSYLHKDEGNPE
T1 sequence (P24385 whole entry partner, species assumed): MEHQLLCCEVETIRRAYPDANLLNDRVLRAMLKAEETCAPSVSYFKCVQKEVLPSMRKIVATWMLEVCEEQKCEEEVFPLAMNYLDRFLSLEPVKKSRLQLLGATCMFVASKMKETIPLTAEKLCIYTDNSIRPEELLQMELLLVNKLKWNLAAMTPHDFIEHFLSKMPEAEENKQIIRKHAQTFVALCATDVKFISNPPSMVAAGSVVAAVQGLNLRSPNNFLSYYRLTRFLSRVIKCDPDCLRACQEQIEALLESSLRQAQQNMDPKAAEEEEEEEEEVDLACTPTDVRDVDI

SMILES | melting point | IC50 [1, 8] [µM] | IC50 [2, 9] [µM] | IC50 ([3]; BT474 cells, 6 days, SRB) [µM] | IC50 ([4]; LoVo cells, 3 days, SRB) [µM] | IC50 ([5]; MCF-7 cells, 3 days, SRB) [µM] | IC50 ([6]; HCT116 cells, 3 days, SRB) [µM] | IC50 [7, 10] [µM] | IC50 [1, 11] [µM] | IC50 [2, 12] [µM] | IC50 ([3]; BT474 cells, SRB, 6 days) [µM] | IC50 ([4]; LoVo cells, SRB, three days) [µM] | IC50 ([5]; MCF-7 cells, SRB, three days) [µM] | IC50 ([6]; HCT116 cells, SRB, three days) [µM] | IC50 [7, 13] [µM] | IC50 [3] [µM] | IC50 [4] [µM] | IC50 [5] [µM] | IC50 [6] [µM]
CN1CCN(c2cnc(N/C=C3\C(=O)NC(=O)c4ccc(I)cc43)cn2)CC1 [Example 507, (4Z)-6-Iodo-4-({[5-(4-methylpiperazin-1-yl)pyrazin-2-yl]amino}methylene)isoquinoline-1,3(2H,4H)-dione] | 238 to 239 °C | 13.7 | 3 | 9.5 | 18 | 11 | 3.1 | 16 |  |  |  |  |  |  |  |  |  |  | 
CN(C)CCN1CCN(/C=C2\C(=O)NC(=O)c3ccc(Br)cc32)CC1 [Example 106, (4Z)-6-Bromo-4-({4-[2-(dimethylamino)ethyl]piperazin-1-yl}methylene)isoquinoline-1,3(2H,4H)-dione] | 166 to 167 °C |  |  |  |  |  |  |  | 31.5 | > 50 | 44.6 | > 50 | > 50 | > 50 | > 50 |  |  |  | 
COc1cc(CN/C=C2\C(=O)NC(=O)c3ccc(Br)cc32)cc(OC(C)=O)c1OC [Example 77, 5-({[(Z)-(6-Bromo-1,3-dioxo-2,3-dihydroisoquinolin-4(1H)-ylidene)methyl]amino}methyl)-2,3-dimethoxyphenyl acetate] | 244 to 245 °C |  |  |  |  |  |  |  | 0.38 | > 50 | 7.7 | 8.4 | 14.4 | 4.8 | > 50 |  |  |  | 
CN1CCN(c2ccc(N/C=C3\C(=O)NC(=O)c4ccc(-c5ccoc5)cc43)nn2)CC1 [Example 476, (4Z)-6-(3-Furyl)-4-({[6-(4-methylpiperazin-1-yl)pyridazin-3-yl]amino}methylene)isoquinoline-1,3(2H,4H)-dione] | 275 to 276 °C | 0.82 | 24.7 | 2.6 | 3.1 | 4.5 | 1.9 | > 50 |  |  |  |  |  |  |  |  |  |  | 
O=C1NC(=O)c2ccc(Br)cc2/C1=C/Nc1ccc(CN2CCOCC2)cc1 [Example 286, (4Z)-6-Bromo-4-({[4-(morpholin-4-ylmethyl)phenyl]amino}methylene)isoquinoline-1,3(2H,4H)-dione] | 209 to 210 °C |  |  |  |  |  |  |  | 3 | > 50 | 16 | 11 | 5.5 | 5.8 | > 50 |  |  |  | 
CCN1CCN(c2ccc(N/C=C3\C(=O)NC(=O)c4ccc(-c5ccoc5)cc43)nc2)CC1 [Example 481, (4Z)-4-({[5-(4-Ethylpiperazin-1-yl)pyridin-2-yl]amino}methylene)-6-(3-furyl)isoquinoline-1,3(2H,4H)-dione] | 256 to 257 °C | 0.19 | > 50 | 0.6 | 0.96 | 1.1 | 0.88 | > 50 |  |  |  |  |  |  |  |  |  |  | 
C[C@@H]1CN(c2ccc(N/C=C3\C(=O)NC(=O)c4ccc(-c5ccoc5)cc43)cc2)C[C@H](C)N1C(=O)CN(C)C [Example 373, (4Z)-4-[({4-[(3R,5S)-4-(N,N-Dimethylglycyl)-3,5-dimethylpiperazin-1-yl]phenyl}amino)methylene]-6-(3-furyl)isoquinoline-1,3(2H,4H)-dione] | 191 to 192 °C |  |  |  |  |  |  |  | 0.01 | > 50 | 3.5 | 1.9 | 2.1 | 0.75 | > 50 |  |  |  | 
CCCOc1cnc(CN/C=C2\C(=O)NC(=O)c3ccc(-c4ccco4)cc32)cc1O [Example 502, 6-Furan-2-yl-4-{[(4-hydroxy-5-propoxy-pyridin-2-ylmethyl)-amino]-methylene}-4H-isoquinoline-1,3-dione] | 288 to 290 °C (dec.) | < 0.005 | 20.2 | 0.69 | 0.96 | 1.2 | 1.4 | 2.8 |  |  |  |  |  |  |  |  |  |  | 
COc1coc(CNC=C2C(=O)NC(=O)c3ccc(Br)cc32)cc1=O [Example 316, 6-Bromo-4-{[(5-methoxy-4-oxo-4H-pyran-2-ylmethyl)-amino]-methylene}-4H-isoquinoline-1,3-dione] | 259 to 261 °C (dec.) |  |  |  |  |  |  |  | 1.3 | > 50 | 4.9 | 5.7 | 9 | 8.9 | 16.9 |  |  |  | 
Cc1ccc(C)n1-c1ccc2c(c1)/C(=C/Nc1ccc(N3CCN(C)CC3)cc1)C(=O)NC2=O [Example 226, (4Z)-6-(2,5-Dimethyl-1H-pyrrol-1-yl)-4-({[4-(4-methylpiperazin-1-′yl)phenyl]amino}methylene)isoquinoline-1,3(2H,4H)-dione] | 264 to 265 °C |  |  |  |  |  |  |  | 0.4 | > 50 | 3.3 | 4.4 | 5.2 | 2.4 | 2.4 |  |  |  | 
CN1CCN(NC(=O)Nc2ccc(N/C=C3\C(=O)NC(=O)c4ccc(Br)cc43)cc2)CC1 [Example 217, N-(4-{[(Z)-(6-Bromo-1,3-dioxo-2,3-dihydroisoquinolin-4(1H)-′ylidene)methyl]amino}phenyl)-N′-(4-methylpiperazin-1-yl)urea] | 270 to 271 °C |  |  |  |  |  |  |  | 13.9 | 31.7 | 3.3 | 4.8 | 7.4 | 2.6 | > 50 |  |  |  | 
O=C1NC(=O)c2ccc(-c3ccsc3)cc2/C1=C/Nc1ccc(N2CCC(N3CCCC3)CC2)nc1 [Example 408] | 203 to 204 °C |  |  |  |  |  |  |  | 0.12 | > 50 |  |  |  |  | > 50 | 2.4 | 2.6 | 5.1 | 2.5
CC(C)Oc1ccc(CN/C=C2\C(=O)NC(=O)c3ccc(Br)cc32)cc1O [Example 137, (4Z)-6-Bromo-4-{[(3-hydroxy-4-isopropoxybenzyl)amino]methylene}isoquinoline-1,3(2H,4H)-dione] | 212 to 213 °C |  |  |  |  |  |  |  | 0.69 | > 50 | 3.3 | 5.8 | 17 | 4.4 | 33.9 |  |  |  | 
O=C1NC(=O)c2ccc(I)cc2/C1=C/Nc1ccc(CN2CCOCC2)cc1 [Example 296, (4Z)-6-Iodo-4-({[4-(morpholin-4-ylmethyl)phenyl]amino}methylene)isoquinoline-1,3(2H,4H)-dione] | 186 to 187 °C |  |  |  |  |  |  |  | 2.1 | > 50 | 6.2 | 5 | 2.6 | 4 | > 50 |  |  |  | 
CN1CCN(c2ccc(N/C=C3\C(=O)NC(=O)c4ccc(-c5coc(C=O)c5)cc43)nc2)CC1 [Example 448, 4-[(4Z)-4-({[5-(4-Methylpiperazin-1-yl)pyridin-2-yl]amino}methylene)-1,3-dioxo-1,2,3,4-tetrahydroisoquinolin-6-yl]-2-furaldehyde] | 183 to 184 °C |  |  | 6.6 | 4.1 | 5 | 2.4 |  | 0.04 | 10 |  |  |  |  | > 50 |  |  |  | 
C[C@@H]1CN(c2c(F)cc(N/C=C3\C(=O)NC(=O)c4ccc(-c5ccsc5)cc43)cc2F)C[C@H](C)N1 [Example 383, (4Z)-4-[({4-[(3R,5S)-3,5-Dimethylpiperazin-1-yl]-3,5-difluorophenyl}amino)methylene]-6-thien-3-ylisoquinoline-1,3(2H,4H)-dione] | 195 to 196 °C |  |  |  |  |  |  |  | 0.45 | 14.4 | 1.3 | 2.6 | 2.1 | 0.84 | 25.9 |  |  |  | 
